Test system: HACAT cells
Assay: HACAT cell proliferation, MTT bioassay
Assay type: cell-based
Method: HACAT cells were seeded in 96 well plates and cultured for one day in DMEM medium with 10% FBS, then subjected to starvation for one day. After starvation, the cells were treated for three days with various dosages of EGF in serum free media. […] The ED50 was approximately 300 pg/ml.
HACAT cells were seeded in 96 well plates and cultured for one day in DMEM medium with 10% FBS, then subjected to starvation for one day. After starvation, the cells were treated for three days with various dosages of Anti-Aging Cytokine Complex AC (“AC ”), i.e. a mixture comprising EGF, bFGF, IGF-1 and TRX, in serum free media.
FIG. 3A depicts control cells, FIG. 3B cells treated with 0.5 ng/ml EGF, and FIG. 3C cells treated with 0.5 ng/ml of AC.

EGF: epidermal growth factor, composed of 53 amino acids
ED50 (cell proliferation) (starved one day, treated three days in serum free media): approximately 300 pg/ml
cell proliferation ratio versus untreated controls (three days, serum free media): higher cell proliferation ratios than the untreated controls

From patent publication US20070224150A1, “Growth factor for hair and skin treatment” (priority 2005, published 2007)
